Patent US20240041764A1, “Sustained-Release Oral Fosamprenavir Formulation for Treatment of Reflux” (The Medical College of Wisconsin, Inc., priority 2022, published 2024)
“Also recorded” adds a separate entry of the source.

Tested on: LPR mouse model (pepsin-mediated laryngeal damage)
Experiment: in vivo LPR mouse model: mechanical injury plus laryngeal pepsin instillation, H&E histology
Details: for protection against pepsin-mediated laryngeal damage (histology): 0.3 mg/ml pepsin pH7, 4 weeks
Text: Three replicate animals per treatment condition were anticipated to suffice for verification of reproducibility in each experiment without excessive use of animal life. The three mice were randomly allocated to treatment groups. No data were excluded from analysis.
Six-week-old female Jackson A/J mice (Jackson Laboratory, Bar Harbor, ME) were fed D-62 powdered Wattenberg diet, 2 g/mouse/day^95 and allowed to acclimate for one week upon arrival prior to experiments. In accord with previously established methods for modeling aerodigestive tract damage attributed to GERD and LPR,^1,95-99 mechanical injury applied during the first two weeks of a four-week treatment course was used to predispose the laryngeal mucosa to chemical injury by pepsin/acid applied throughout the four weeks. […] Briefly, anesthetized mice were suspended by upper teeth on a slanted board under an operating microscope.
In a preliminary experiment to validate the LPR mouse model (i.e. laryngeal damage by pepsin at neutral and acidic pH), 20 μl saline (solvent control) or 0.3 mg/ml pepsin at pH7.0 or 4.0 were provided to mice (n=3) by laryngeal instillation at 24, 48, and 72 hours after mechanical injury during weeks 1 and 2 (FIG. 6); laryngeal instillation without wounding (3 days/week) continued during weeks 3 and 4. […] Mice were sacrificed at conclusion of the fourth week.
To test the protective effect of HIV protease inhibitors on pepsin-mediated damage in vivo, inhibitors were delivered by aerosol or gavage concurrently with wounding (days 2, 8) and solvent/pepsin instillation (days 3-5, 9-11, 16-18 and 23-25). Aerosol or gavage was provided on days 1-5, 8-12, 15-19, and 22-25, and mice sacrificed day 26. Mice were anesthetized with isoflurane (3% in 2.5LPM, 3-5 minutes prior to procedures) as opposed to Avertin due to frequency. […] Aerosol was generated as described^100. Briefly, a 10 ml suspension of drug in ethanol was placed in the baffle, such that the concentration would remain constant at the equilibrium solubility. Droplets of ethanol containing dissolved drug were generated by an ultrasonic atomizer (nominal frequency 1.7 MHz) and entrained by air at a flow rate of 0.5 LPM with a custom-built glass baffle (UMN Department of Chemistry Glass Shop). The aerosol cloud was then passed through a cylindrical drying column containing an annular ring of charcoal. The ethanol was removed and the emanating dry aerosol particles of pure drug were then directed into the exposure chamber. The mass deposited on filters was measured gravimetrically and total output rate (mg/min) was determined. The aerosol concentration (mass/volume of air) was calculated by dividing the total output rate by the air flow rate (0.5 LPM). The inhaled mass of drug (Minh) for each mouse was defined as Minh=[Aerosol]*RMV*t, where Aerosol is the aerosol concentration of drug, RMV is the respiratory minute volume of the mice (0.025 L/min), and t is the aerosol exposure time. […] Actual mass deposited was not determined but anticipated to be 10% of inhaled mass (the deposition fraction of […] aerosol particles in mice).
Tissues were collected, fixed in paraformaldehyde, embedded in paraffin and 4 um sections stained with hematoxylin and eosin (H&E) via automated stainer. Slides were reviewed by a board-certified pathologist (JM) blinded to treatment groups.

## CC(C)CN(C[C@@H](O)[C@H](Cc1ccccc1)NC(=O)O[C@H]1CO[C@H]2OCC[C@H]21)S(=O)(=O)c1ccc(N)cc1 [darunavir, [(3aS,4R,6aR)-2,3,3a,4,5,6a-hexahydrofuro[2,3-b]furan-4-yl]N-[(2S,3R)-4-[(4-aminophenyl)sulfonyl-(2-methylpropyl)amino]-3-hydroxy-1-phenylbutan-2-yl]carbamate]
aerosol
  laryngeal histology, drug with saline (solvent), no pepsin: absent
aerosol, inhaled mass 0.93 mg/kg/day fosamprenavir, 12 mg/kg/day darunavir
  protection against pepsin-mediated laryngeal damage (histology): moderate protection against pepsin-mediated damage; also recorded: mild protection against pepsin-mediated damage
gavage
  laryngeal histology, drug with saline (solvent), no pepsin: Mild reactivity
gavage, 20 mg/kg/day fosamprenavir (Lexiva), 8.6 mg/kg/day darunavir (Prezista)
  protection against pepsin-mediated laryngeal damage (histology): obscured the ability to detect its effect on pepsin-mediated damage and not and appeared similar
gavage, listed as Darunavir
  laryngeal histology, drug with saline (solvent), no pepsin: mild reactivity (rare intraepithelial lymphocytes)
